Where a name gives a salt, the structure may show the parent alone.
Tested on: E. coli clinical isolates
Experiment: screen of strains on agar plates (CPS ID 3 or Columbia agar)
Format: cell-based
Set-up: key to colour: Red, Green, Black or Purple mean strong colour; Red, Green, Black or Purple mean strong colour; Red, Green, Black or Purple mean strong colour; Red, Green, Black or Purple mean strong colour; +/− means less colour than strong; Tr means a trace of colour, less than +/−; — means no colour
Details: for colour: 37° C. 18 hours
Text: In order to obtain a fuller picture of the sensitivity of the substrates, they were screened with 100 different clinical isolates of E. coli in a liquid medium containing FAC. The isolates were chosen at random from the Microbiology Department, Freeman Hospital, Newcastle Upon Tyne, UK. The effectiveness of the new substrates was compared with three other media which all contained indoxyl-β-D-glucuronides. One was a commercial medium, CPS ID 3 (bioMérieux SA, Lyon, France). […] This medium was employed as a control. Among the β-D-glucuronidase producing strains of E. coli there is a large variation in the quantity of the enzyme produced and it is almost certain that the CPS ID 3 medium has been rigorously optimised to allow good growth of all the target organisms and maximum expression of the target enzymes. Therefore, two indoxyl glucuronides, X-β-D-glucuronide CHA salt and Rose-β-D-glucuronide CHA salt were also tested in a simple agar medium to allow a direct comparison of the sensitivity of these Indoxyl glucuronides when used in a medium that has not been optimised for the growth of the target organism. The comparison of the results for Rose-β-D-glucuronide and the CPS ID 3 medium was of particular significance as the commercial medium also uses Rose-β-D-glucuronide for the detection of E. coli. For consistency, the four glucuronides were all chosen as their CHA salts. As already stated, it is not anticipated that the salt form is critical to their performance. Currently. X-β-D-glucuronide is often used as either the CHA salt or the sodium salt. Brenner and colleagues [K. P. Brenner et al, Appl. Environ. Microbiol., 59, 3534-3544, (1993)] found no difference in the performance of the CHA and sodium salt forms with their application using indoxyl-β-D-glucuronide, neither in respect of colour development nor in the recovery of E. coli.
The two indoxyl glucuronides used produce insoluble endpoints following hydrolysis, as does the CPS ID 3 medium. It was therefore necessary to test these two substrates on agar plates. In contrast, catechol-β-D-glucuronide (1) and DHN-β-D-glucuronide (2b) give much more soluble endpoints best suited to liquid media and were therefore tested in a broth medium. Each broth was prepared using proteose peptone (Oxoid, Basingstoke, UK) (2 g), NaCl (1 g) and FAC (100 mg) in DI water (180 mL). This mixture was autoclaved and cooled to room temperature before being dispensed into bijoux (100×1.8 mL). Catechol β-D-glucuronide CHA salt (1) or DHN-β-D-glucuronide CHA salt (2b) (60 mg) were each dissolved in water (20 mL) and filtered to sterilize before being aseptically dispensed into successive bijoux (0.2 mL) containing the broth solution. The broth/substrate solutions were then inoculated with bacterial suspensions made up to 0.5 McFarland standard (2 μL per bijoux). X-β-D-glucuronide CHA salt (Glycosynth Ltd, Warrington, UK) (10 mg) was dissolved in NMP (200 μL). Rose-β-D-glucuronide CHA salt (Glycosynth Ltd, Warrington, UK) (20 mg) was dissolved in NMP (200 μL). These solutions were then added to Columbia agar (Oxoid, Basingstoke, UK) (100 mL) and inoculated with bacterial suspensions made up to 0.5 McFarland standard (1 μL). The plates and broths were incubated at 37° C. for 18 hours in air.

[1] = 100 E. coli strains after 18 h incubation

O=C(O)[C@H]1O[C@@H](Oc2c[nH]c3cc(Cl)ccc23)[C@H](O)[C@@H](O)[C@@H]1O [Rose-β-D-glucuronide CHA salt, 6-chloro-3-indolyl β-D-glucuronide]
% Sensitivity [1]: 81%
Negative strains [1]: 19
Positive strains [1]: 81
colour (E. coli 260262P): Red
colour (E. coli 260280Z): Red
colour (E. coli 260310H): Red
colour (E. coli 260313A): —
colour (E. coli 260316T): —
colour (E. coli 260327V): Red
colour (E. coli 260330Y): Red
colour (E. coli 260333P): —
colour (E. coli 260345F): Red
colour (E. coli 260348K): Red
colour (E. coli 260354W): Red
colour (E. coli 260364H): —
colour (E. coli 260370C): Red
colour (E. coli 260375E): Red
colour (E. coli 260390B): —
colour (E. coli 260396Z): Red
colour (E. coli 260398Q): Red
colour (E. coli 260400N): —
colour (E. coli 260401Q): Red
colour (E. coli 260402H): Red
colour (E. coli 260404W): Red
colour (E. coli 260405P): Red
colour (E. coli 260406A): —
colour (E. coli 260406Y): Red
colour (E. coli 260407F): Red
colour (E. coli 260408C): Red
colour (E. coli 260411Z): Red
colour (E. coli 260412Q): Red
colour (E. coli 260414H): Red
colour (E. coli 260415Y): Red
colour (E. coli 260416W): —
colour (E. coli 260417P): Red
colour (E. coli 260422Y): Red
colour (E. coli 260424P): Red
colour (E. coli 260425A): Red
colour (E. coli 260426F): Red
colour (E. coli 260428T): Red
colour (E. coli 260431N): Red
colour (E. coli 260432E): Red
colour (E. coli 260433H): Red
colour (E. coli 260434Y): Red
colour (E. coli 260435W): Red
colour (E. coli 260436P): Red
colour (E. coli 260437A): Tr. Red
colour (E. coli 260438F): Red
colour (E. coli 260439C): Red
colour (E. coli 260440S): Red
colour (E. coli 260441G): Red
colour (E. coli 260458Y): Red
colour (E. coli 260459W): Red
colour (E. coli 260463D): Red
colour (E. coli 260464G): Red
colour (E. coli 260471B): —
colour (E. coli 260478N): —
colour (E. coli 260479Q): Red
colour (E. coli 260480M): Red
colour (E. coli 260481J): Red
colour (E. coli 260483R): —
colour (E. coli 260485D): Red
colour (E. coli 260486L): Red
colour (E. coli 260492J): Red
colour (E. coli 260494B): Red
colour (E. coli 260495R): —
colour (E. coli 260497D): Red
colour (E. coli 260502G): Red
colour (E. coli 260503Z): Red
colour (E. coli 260504N): Red
colour (E. coli 260505Q): —
colour (E. coli 260506E): Red
colour (E. coli 260508Y): Red
colour (E. coli 260509W): Red
colour (E. coli 260510R): Red
colour (E. coli 260511X): Red
colour (E. coli 260514G): —
colour (E. coli 260515Z): Red
colour (E. coli 260521S): Red
colour (E. coli 260522Z): Red
colour (E. coli 260532S): Red
colour (E. coli 260533G): Red
colour (E. coli 260536Q): Red
colour (E. coli 260537E): —
colour (E. coli 260538H): —
colour (E. coli 260539Y): Red
colour (E. coli 260541R): Red
colour (E. coli 260545G): Red
colour (E. coli 260547N): Red
colour (E. coli 260548Q): Red
colour (E. coli 260549E): Red
colour (E. coli 260553X): —
colour (E. coli 260554D): Red
colour (E. coli 260555L): Red
colour (E. coli 260563B): Red
colour (E. coli 260564R): Red
colour (E. coli 260578D): —
colour (E. coli 2603121P): —
colour (E. coli 2604399E): Red
colour (E. coli O157 non-toxigenic): —
colour of positive colonies (in words): red colonies
